Laboratory results as given in patent US20240308995A1, “O-GLYCOPROTEIN-2-ACETAMIDO-2-DEOXY-3-D-GLUCOPYRANOSIDASE INHIBITORS” (BIOGEN MA INC., priority 2018, published 2024).
Where two headings read alike, the source gives them in different places. Marks after values point to notes of the source that are not given here.

What was measured:
[1] = Rat Liver Microsome Stability Assay; type: in vitro ADME
[2] = target: Recombinant full length human OGA enzyme (Homo sapiens (Human), UniProt O60502); assay: OGA Enzyme Inhibition Biochemical Assay; settings: 1 nM OGA, 100 μM 4-MUGlcNAc, pH 6.4
Sequence of Recombinant full length human OGA enzyme (O60502 whole entry): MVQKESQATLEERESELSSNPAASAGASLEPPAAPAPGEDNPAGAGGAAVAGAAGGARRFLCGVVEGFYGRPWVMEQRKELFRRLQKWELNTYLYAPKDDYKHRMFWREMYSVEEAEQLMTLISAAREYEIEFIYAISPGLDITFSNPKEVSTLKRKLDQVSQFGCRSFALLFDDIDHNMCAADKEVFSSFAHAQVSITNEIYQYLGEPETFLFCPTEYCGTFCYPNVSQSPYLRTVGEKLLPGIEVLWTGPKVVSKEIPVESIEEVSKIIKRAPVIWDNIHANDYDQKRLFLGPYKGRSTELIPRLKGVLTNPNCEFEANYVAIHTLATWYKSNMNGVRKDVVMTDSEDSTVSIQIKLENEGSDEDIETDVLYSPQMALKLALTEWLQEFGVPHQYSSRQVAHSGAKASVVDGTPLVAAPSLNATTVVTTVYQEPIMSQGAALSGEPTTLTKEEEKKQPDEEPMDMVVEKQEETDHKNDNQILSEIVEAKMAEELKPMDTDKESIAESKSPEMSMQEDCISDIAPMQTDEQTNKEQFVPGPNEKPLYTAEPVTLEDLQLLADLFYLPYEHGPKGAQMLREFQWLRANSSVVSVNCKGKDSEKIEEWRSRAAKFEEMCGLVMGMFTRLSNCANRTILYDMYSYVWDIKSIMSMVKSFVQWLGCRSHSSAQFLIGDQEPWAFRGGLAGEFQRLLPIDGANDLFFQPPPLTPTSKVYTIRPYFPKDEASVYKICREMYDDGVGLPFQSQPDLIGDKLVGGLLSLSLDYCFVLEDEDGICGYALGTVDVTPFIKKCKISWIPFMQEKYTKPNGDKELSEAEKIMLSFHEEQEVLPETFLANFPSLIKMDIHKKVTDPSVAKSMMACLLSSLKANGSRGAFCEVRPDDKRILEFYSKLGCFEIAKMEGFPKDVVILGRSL
Method in brief: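 Full-length recombinant human OGA with fluorogenic 4-MUGlcNAc in McIlvaine buffer pH 6.4, 0.01% BSA; 90 min at room temperature, glycine pH 10 quench, fluorescence Ex 355/Em 460 nm. 10-point, 4-fold dilution from 20 μM; 4-parameter variable-slope fit.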

[3] = target: OGA (S400 O-GLCNAC), HEK-293T cells transfected with Tau-V5 (Homo sapiens (Human), UniProt O60502); assay: Cellular OGA-Tau MSD Assay; type: cell-based; settings: HEK-293T cells, Tau-S400-GlcNAc MSD readout
Sequence of OGA (S400 O-GLCNAC), HEK-293T cells transfected with Tau-V5 (O60502 whole entry): as above
Method in brief: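 HEK-293T cells transfected with OGA and Tau-V5 plasmids were treated overnight at 37° C with a 10-point, 3-fold titration from 1 uM. Lysates went onto V5-antibody MSD plates to capture Tau, probed with a Tau O-GlcNAc antibody and read by electrochemiluminescence; IC50 from a 4-parameter fit.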

[4] = system: P-gp (MDR1); assay: MDR1-MDCK Efflux Ratio Assay; type: in vitro ADME; settings: dog, read-out: MDR1-MDCK Efflux Ratio (B-A/A-B)
Experimental: MDR1-MDCK cell monolayers were grown to confluence on microporous polyester membranes in 96-well Corning insert plates. The permeability assay buffer was Hanks' Balanced Salt Solution containing 10 mM HEPES at pH of 7.4. Loperamide (1 μM) was used as a positive control P-gp substrate. Propranolol and Bestatin (1 μM) were used as high and low permeability comparators, respectively. Test compounds or positive control P-gp substrate/permeability comprators were added to respective apical and basolateral chambers for bidirectional assessment of permeability. Receiver buffer (transport buffer supplemented with 1% bovine serum albumin) was added to respective receiver chambers. MDR1-MDCK cells were incubated with test compounds at 37° C. with 5% CO2 for 2 hr. Samples were collected from the donor chamber at both 0 and 120 minutes, and from the receiver chamber at 120 minutes. Test and control compound concentrations were determined using LC-MS/MS analysis. Each determination was performed in triplicate. The apparent permeability (Papp), efflux ratio and mass balance (percent recovery) were calculated as follows: [formula] where: dCr/dt is the cumulative concentration in the receiver compartment versus time in μM s^−1 Vr is the volume of the receiver compartment in cm^3 Vd is the volume of the donor compartment in cm^3 A is the area of the insert (0.143 cm^2 for 96-well insert) CE is the estimated experimental concentration (Time=0) of the dosing solution Cr^final is the concentration of the receiver at the end of the incubation period Cd^final is the concentration of the donor at the end of the incubation period.

[5] = rat liver microsomes, 1 uM compound
[6] = MDCK-MDR1, pH 7.4, MDR1-MDCK cells, 2 hr, pH 7.4

| SMILES | RLM % Qh (%) [1, 5] [%] | IC50 [2] [nM] | IC50 [3] [nM] | efflux ratio at 2 h [4, 6] | RLM % Qh (%) ([1]; repeated assay, value marked with asterisk (*)) | efflux ratio at 2 h ([4]; MDCK-MDR1, pH 7.4, repeated assay, value marked with asterisk (*)) |
| --- | --- | --- | --- | --- | --- | --- |
| CC(=O)Nc1ncc(CN2C[C@H](Oc3cc(C)nc(C)n3)C[C@@H]2C)s1 [Example 1-128, N-(5-(((2S,4R)-4-((2,6-dimethylpyrimidin-4-yl)oxy)-2-methylpyrrolidin-1-yl)methyl)thiazol-2-yl)acetamide] | 48 | < 1 | 1 | 26.3 |  |  |
| CC(=O)Nc1ncc(CN2C[C@@H](Oc3ccc(F)cn3)C[C@H]2C)s1 [Example 1-8, N-(5-(((2R,4S)-4-((5-fluoropyridin-2-yl)oxy)-2-methylpyrrolidin-1-yl)methyl)thiazol-2-yl)acetamide] | 76 | 460 | > 1000 | 2.3 |  |  |
| CC(=O)Nc1ncc(CN2C[C@H](Oc3cc(C)ncc3C)C[C@@H]2C)s1 [Example 1-72, N-(5-(((2S,4R)-4-((2,5-dimethylpyridin-4-yl)oxy)-2-methylpyrrolidin-1-yl)methyl)thiazol-2-yl)acetamide] | 64 | 7.2 | 8 | 55.1 |  |  |
| COc1cncc(O[C@@H]2C[C@H](C)N(Cc3sc(NC(C)=O)nc3F)C2)n1 [Example 1-88, N-(4-fluoro-5-(((2S,4R)-4-((6-methoxypyrazin-2-yl)oxy)-2-methylpyrrolidin-1-yl)methyl)thiazol-2-yl)acetamide] | 98 | < 1 | 1 | 4.7 |  |  |
| CC(=O)Nc1ncc(CN2C[C@H](Oc3ccc(C#N)cn3)C[C@@H]2C)s1 [Example 1-16, N-(5-(((2S,4R)-4-((5-cyanopyridin-2-yl)oxy)-2-methylpyrrolidin-1-yl)methyl)thiazol-2-yl)acetamide] | 50 | < 1 | 1 | 9.7 | 51* % |  |
| CC(=O)Nc1nc(F)c(CN2C[C@H](Oc3ncccc3F)C[C@@H]2C)s1 [Example 1-94, N-(4-fluoro-5-(((2S,4R)-4-((3-fluoropyridin-2-yl)oxy)-2-methylpyrrolidin-1-yl)methyl)thiazol-2-yl)acetamide] | 91 | < 1 | 2 | 1.8 |  |  |
| CC(=O)Nc1ncc(CN2CCC[C@@H](Oc3ccc(F)cn3)C2)s1 [Example 1-3, (R)—N-(5-((3-((5-fluoropyridin-2-yl)oxy)piperidin-1-yl)methyl)thiazol-2-yl)acetamide] | 82 | 140 | 38 | 2.3 |  | 2.2 |
| CC(=O)Nc1ncc(CN2CCC[C@@H](Oc3cc(C)nc(C)c3)C2)s1 [Example 1-65, (R)—N-(5-((3-((2,6-dimethylpyridin-4-yl)oxy)piperidin-1-yl)methyl)thiazol-2-yl)acetamide] | 85 | 2.1 | 18 | 17 |  |  |
| CC(=O)Nc1nc(F)c(CN2C[C@@H](Oc3cc(C)nc(C)c3)C[C@H]2C)s1 [Example 1-53, N-(5-(((2R,4S)-4-((2,6-dimethylpyridin-4-yl)oxy)-2-methylpyrrolidin-1-yl)methyl)-4-fluorothiazol-2-yl)acetamide] | 26 | 1700 | > 1000 | 21.8 |  |  |
| CC(=O)Nc1nc(F)c(CN2C[C@H](Oc3ncccn3)C[C@@H]2C)s1 [Example 1-93, N-(4-fluoro-5-(((2S,4R)-2-methyl-4-(pyrimidin-2-yloxy)pyrrolidin-1-yl)methyl)thiazol-2-yl)acetamide] | 42 | < 1 | 2 | 14.3 |  |  |
| CC(=O)Nc1nc(F)c(CN2C[C@H](Oc3ccnc(C)c3)C[C@@H]2C)s1 [Example 1-110, N-(4-fluoro-5-(((2S,4R)-2-methyl-4-((2-methylpyridin-4-yl)oxy)pyrrolidin-1-yl)methyl)thiazol-2-yl)acetamide] | 39 | < 1 | 1 | 34.4 |  |  |
| COc1nccc(O[C@@H]2C[C@H](C)N(Cc3sc(NC(C)=O)nc3F)C2)n1 [Example 1-92, N-(4-fluoro-5-(((2S,4R)-4-((2-methoxypyrimidin-4-yl)oxy)-2-methylpyrrolidin-1-yl)methyl)thiazol-2-yl)acetamide] | 54 | < 1 | 1 | 10 |  |  |

Second part, the compound after the results:

| RLM % Qh (%) [1, 5] [%] | IC50 [2] [nM] | IC50 [3] [nM] | efflux ratio at 2 h [4, 6] | RLM % Qh (%) ([1]; repeated assay, value marked with asterisk (*)) | efflux ratio at 2 h ([4]; MDCK-MDR1, pH 7.4, repeated assay, value marked with asterisk (*)) | SMILES |
| --- | --- | --- | --- | --- | --- | --- |
| 76 | < 1 | 2 | 19.7 |  |  | CCN(C)c1cc(O[C@@H]2C[C@H](C)N(Cc3cnc(NC(C)=O)s3)C2)ncn1 [Example 1-132, N-(5-(((2S,4R)-4-((6-(ethyl(methyl)amino)pyrimidin-4-yl)oxy)-2-methylpyrrolidin-1-yl)methyl)thiazol-2-yl)acetamide] |
| 48 | < 1 | 2 | 3.8 |  |  | CCOc1cc(O[C@@H]2C[C@H](C)N(Cc3cnc(NC(C)=O)s3)C2)ncn1 [Example 1-126, N-(5-(((2S,4R)-4-((6-ethoxypyrimidin-4-yl)oxy)-2-methylpyrrolidin-1-yl)methyl)thiazol-2-yl)acetamide] |
| 30 | < 1 | 4 | 5.9 |  |  | [2H][C@@]1(Oc2cc(OC)ncn2)C[C@H](C)N(Cc2cnc(NC(C)=O)s2)C1 (single isomer, unassigned) [Example 1-163] |
| 59 | < 1 | 3 | 6.1 |  |  | CC(=O)Nc1ncc(CN2C[C@H](Oc3cnc(C)cn3)C[C@@H]2C)s1 [Example 1-69, N-(5-(((2S,4R)-2-methyl-4-((5-methylpyrazin-2-yl)oxy)pyrrolidin-1-yl)methyl)thiazol-2-yl)acetamide] |
| 65 | < 1 | 1 | 25.5 |  |  | CC(=O)Nc1ncc(CN2C[C@H](Oc3cc(N4CCCC4)ncn3)C[C@@H]2C)s1 [Example 1-129, N-(5-(((2S,4R)-2-methyl-4-((6-(pyrrolidin-1-yl)pyrimidin-4-yl)oxy)pyrrolidin-1-yl)methyl)thiazol-2-yl)acetamide] |
| 76 | 1.7 | 16 | 3.5 |  |  | COc1ncnc(O[C@@H]2C[C@H](C)N(Cc3cnc(NC(C)=O)s3)C2)c1C [Example 1-71, N-(5-(((2S,4R)-4-((6-methoxy-5-methylpyrimidin-4-yl)oxy)-2-methylpyrrolidin-1-yl)methyl)thiazol-2-yl)acetamide] |
| 29 | < 1 | 3 | 5.2 |  |  | [2H]C(c1cnc(NC(C)=O)s1)N1C[C@H](Oc2cc(OC)ncn2)C[C@@H]1C (single isomer, unassigned) [Example 1-158] |
| 81 | < 1 | < 1 | 1.8 |  |  | CC(=O)Nc1ncc(CN2C[C@H](Oc3cc(C)c(F)cn3)C[C@@H]2C)s1 [Example 1-87, N-(5-(((2S,4R)-4-((5-fluoro-4-methylpyridin-2-yl)oxy)-2-methylpyrrolidin-1-yl)methyl)thiazol-2-yl)acetamide] |
| 34 | < 1 | 2 | 28.6 |  |  | COc1ccc(O[C@@H]2C[C@H](C)N(Cc3cnc(NC(C)=O)s3)C2)nn1 [Example 1-68, N-(5-(((2S,4R)-4-((6-methoxypyridazin-3-yl)oxy)-2-methylpyrrolidin-1-yl)methyl)thiazol-2-yl)acetamide] |
| 16 | < 1 | 3 | 11.2 |  |  | CC(=O)Nc1ncc(CN2C[C@H](Oc3cc(OC4COC4)ncn3)C[C@@H]2C)s1 [Example 1-124, N-(5-(((2S,4R)-2-methyl-4-((6-(oxetan-3-yloxy)pyrimidin-4-yl)oxy)pyrrolidin-1-yl)methyl)thiazol-2-yl)acetamide] |
